Assay results reported in patent US20240277698A1, “METHODS OF USING ALDOSTERONE SYNTHASE INHIBITORS” (CINCOR PHARMA, INC., priority 2021, published 2024).

Molecular target: T1, aldosterone synthase (Homo sapiens, UniProt P19099)
T1 construct: synthesized in the adrenal cortex by aldosterone synthase; endogenous in cells; host or cells: adrenal cortex of healthy human subjects (in vivo, oral dosing)
T1 sequence (P19099 25-503): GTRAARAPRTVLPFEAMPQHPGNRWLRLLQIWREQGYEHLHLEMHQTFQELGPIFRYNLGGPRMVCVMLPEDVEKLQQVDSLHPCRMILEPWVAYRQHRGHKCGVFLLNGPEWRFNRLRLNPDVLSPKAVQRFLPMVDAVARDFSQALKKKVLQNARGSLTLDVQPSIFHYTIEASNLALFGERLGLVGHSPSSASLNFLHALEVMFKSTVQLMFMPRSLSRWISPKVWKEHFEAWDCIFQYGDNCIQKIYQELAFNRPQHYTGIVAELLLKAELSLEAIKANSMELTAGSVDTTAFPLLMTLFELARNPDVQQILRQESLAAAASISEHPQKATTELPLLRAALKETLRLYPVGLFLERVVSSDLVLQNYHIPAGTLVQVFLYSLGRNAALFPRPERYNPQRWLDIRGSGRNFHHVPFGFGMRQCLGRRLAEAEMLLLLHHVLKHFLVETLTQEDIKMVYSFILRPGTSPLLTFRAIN
Assay: MAD study: plasma aldosterone and precursors (18-hydroxycorticosterone, corticosterone, 11-deoxycorticosterone)
Assay type: in vivo
Details: for Plasma 11-deoxycorticosterone, Day −1 predose / Plasma 18-hydroxycorticosterone, Day −1 predose / Plasma aldosterone, Day −1 predose / Plasma corticosterone, Day −1 predose: baseline; for inhibition of aldosterone synthesis: normal salt diet and low salt diet, 10-day dosing
From the text: For each subject, the study consisted of: • A screening period of up to 28 days; • A 5-day inpatient run-in period during which subjects adhered to a controlled, standardized diet and underwent baseline PD assessments; • A 15-day inpatient treatment period, during which subjects received (R)-compound 1 or placebo once daily for 10 days while adhering to a controlled, standardized diet, followed by PK and PD sampling over an additional 5 days; and • A follow-up visit 3 days (1 day) after discharge from the clinical unit. • A cortisol stimulation test (Cohorts 1 and 2 only) and standing aldosterone assessment (all cohorts) were performed on Days 1 and 10. Serial blood samples for PK and PD were obtained prior to and at specified time points over 24 hours after dosing on Day 1 as well as prior to and at specified time points over 120 hours after dosing on Day 10. In addition, blood samples for PK were collected prior to dosing on Days 8 and 9. Urine for PK and PD measurements was collected over 24 hours starting just prior to dosing on Day 1 as well as over 120 hours starting just prior to dosing on Day 10. […]

[1] = 2.5 mg QD, normal salt diet, mean

CCC(=O)N[C@@H]1CCCc2c(-c3ccc4c(c3)CCC(=O)N4C)cncc21 [(R)-Compound 1, (R)—N-(4-(1-methyl-2-oxo-1,2,3,4-tetrahydroquinolin-6-yl)-5,6,7,8-tetrahydroisoquinolin-8-yl)propionamide]
Plasma 18-hydroxycorticosterone, Day 10, 24 hours postdose (2.5 mg QD, low salt diet, mean): 961.8 pg/mL
Plasma 18-hydroxycorticosterone, Day 10, predose (2.5 mg QD, low salt diet, mean): 895.4 pg/mL
Plasma 18-hydroxycorticosterone, Percent change from Day −1 to Day 10 (2.5 mg QD, low salt diet, mean): −22.0%
Plasma aldosterone, Day 1, 12 hours postdose (2.5 mg QD, low salt diet, mean): 48.013 pg/mL
Plasma aldosterone, Day 1, predose (2.5 mg QD, low salt diet, mean): 151.988 pg/mL
Plasma aldosterone, Day 10, 12 hours postdose (2.5 mg QD, low salt diet, mean): 69.100 pg/mL
Plasma aldosterone, Day 10, 24 hours postdose (2.5 mg QD, low salt diet, mean): 112.213 pg/mL
Plasma aldosterone, Day 10, predose (2.5 mg QD, low salt diet, mean): 97.538 pg/mL
Plasma aldosterone, Percent change from Day −1 to Day 10, predose (2.5 mg QD, low salt diet, mean): −56.540%
Plasma corticosterone, Day 1, 12 hours postdose (2.5 mg QD, low salt diet, mean): 1653.4 pg/mL
Plasma corticosterone, Day 1, predose (2.5 mg QD, low salt diet, mean): 3711.5 pg/mL
Plasma corticosterone, Day 10, 12 hours postdose (2.5 mg QD, low salt diet, mean): 3412.5 pg/mL
Plasma corticosterone, Day 10, 24 hours postdose (2.5 mg QD, low salt diet, mean): 10012.5 pg/mL
Plasma corticosterone, Day 10, predose (2.5 mg QD, low salt diet, mean): 7190.0 pg/mL
Plasma corticosterone, Percent change from Day −1 to Day 10, predose (2.5 mg QD, low salt diet, mean): 132.0%
Plasma 11-deoxycorticosterone, Day −1 predose [1]: 50.017 pg/mL
Plasma 18-hydroxycorticosterone, Day −1 predose [1]: 1185.8 pg/mL
Plasma aldosterone, Day −1 predose [1]: 153.667 pg/mL
Plasma corticosterone, Day −1 predose [1]: 6395.0 pg/mL
Plasma 11-deoxycorticosterone, Day 1, 12 hours postdose [1]: 23.667 pg/mL
Plasma 11-deoxycorticosterone, Day 1, predose [1]: 53.200 pg/mL
Plasma 11-deoxycorticosterone, Day 2, predose [1]: 69.617 pg/mL
Plasma 11-deoxycorticosterone, Day 10, 12 hours postdose [1]: 93.780 pg/mL
Plasma 11-deoxycorticosterone, Day 10, 24 hours postdose [1]: 177.400 pg/mL
Plasma 11-deoxycorticosterone, Day 10, predose [1]: 130.680 pg/mL
Plasma 11-deoxycorticosterone, Percent change from Day −1 to Day 10, predose [1]: 171.567%
Plasma 18-hydroxycorticosterone, Day 1, 12 hours postdose [1]: 267.3 pg/mL
Plasma 18-hydroxycorticosterone, Day 1, predose [1]: 1087.0 pg/mL
Plasma 18-hydroxycorticosterone, Day 2, predose [1]: 901.2 pg/mL
Plasma 18-hydroxycorticosterone, Day 10, 12 hours postdose [1]: 345.6 pg/mL
Plasma 18-hydroxycorticosterone, Day 10, 24 hours postdose [1]: 1238.0 pg/mL
Plasma 18-hydroxycorticosterone, Day 10, predose [1]: 1073.4 pg/mL
Plasma 18-hydroxycorticosterone, Percent change from Day −1 to Day 10 [1]: −10.4%
Plasma aldosterone, Day 1, 12 hours postdose [1]: 16.535 pg/mL
Plasma aldosterone, Day 1, predose [1]: 131.250 pg/mL
Plasma aldosterone, Day 2, predose [1]: 37.700 pg/mL
Plasma aldosterone, Day 10, 12 hours postdose [1]: 46.360 pg/mL
Plasma aldosterone, Day 10, 24 hours postdose [1]: 120.740 pg/mL
Plasma aldosterone, Day 10, predose [1]: 101.880 pg/mL
Plasma aldosterone, Percent change from Day −1 to Day 10, predose [1]: −34.296%
Plasma corticosterone, Day 1, 12 hours postdose [1]: 889.0 pg/mL
Plasma corticosterone, Day 1, predose [1]: 5828.3 pg/mL
Plasma corticosterone, Day 2, predose [1]: 6328.3 pg/mL
Plasma corticosterone, Day 10, 12 hours postdose [1]: 2704.0 pg/mL
Plasma corticosterone, Day 10, 24 hours postdose [1]: 11182.0 pg/mL
Plasma corticosterone, Day 10, predose [1]: 8102.0 pg/mL
Plasma corticosterone, Percent change from Day −1 to Day 10, predose [1]: 60.6%
Plasma 11-deoxycorticosterone, Day −1 predose (5.0 mg QD, low salt diet, mean): 49.111 pg/mL
Plasma 18-hydroxycorticosterone, Day −1 predose (5.0 mg QD, low salt diet, mean): 966.3 pg/mL
Plasma aldosterone, Day −1 predose (5.0 mg QD, low salt diet, mean): 189.633 pg/mL
Plasma corticosterone, Day −1 predose (5.0 mg QD, low salt diet, mean): 3700.7 pg/mL
Plasma 11-deoxycorticosterone, Day 1, 12 hours postdose (5.0 mg QD, low salt diet, mean): 94.622 pg/mL
Plasma 11-deoxycorticosterone, Day 1, predose (5.0 mg QD, low salt diet, mean): 55.789 pg/mL
Plasma 11-deoxycorticosterone, Day 10, 12 hours postdose (5.0 mg QD, low salt diet, mean): 219.700 pg/mL
Plasma 11-deoxycorticosterone, Day 10, 24 hours postdose (5.0 mg QD, low salt diet, mean): 308.444 pg/mL
Plasma 11-deoxycorticosterone, Day 10, predose (5.0 mg QD, low salt diet, mean): 218.611 pg/mL
Plasma 11-deoxycorticosterone, Percent change from Day −1 to Day 10, predose (5.0 mg QD, low salt diet, mean): 573.144%
Plasma 18-hydroxycorticosterone, Day 1, 12 hours postdose (5.0 mg QD, low salt diet, mean): 162.3 pg/mL
Plasma 18-hydroxycorticosterone, Day 1, predose (5.0 mg QD, low salt diet, mean): 825.8 pg/mL
Plasma 18-hydroxycorticosterone, Day 10, 12 hours postdose (5.0 mg QD, low salt diet, mean): 405.2 pg/mL
Plasma 18-hydroxycorticosterone, Day 10, 24 hours postdose (5.0 mg QD, low salt diet, mean): 1298.0 pg/mL
Plasma 18-hydroxycorticosterone, Day 10, predose (5.0 mg QD, low salt diet, mean): 1159.6 pg/mL
Plasma 18-hydroxycorticosterone, Percent change from Day −1 to Day 10 (5.0 mg QD, low salt diet, mean): 38.2%
Plasma aldosterone, Day 1, 12 hours postdose (5.0 mg QD, low salt diet, mean): 17.511 pg/mL
Plasma aldosterone, Day 1, predose (5.0 mg QD, low salt diet, mean): 182.800 pg/mL
Plasma aldosterone, Day 10, 12 hours postdose (5.0 mg QD, low salt diet, mean): 49.467 pg/mL
Plasma aldosterone, Day 10, 24 hours postdose (5.0 mg QD, low salt diet, mean): 125.811 pg/mL
Plasma aldosterone, Day 10, predose (5.0 mg QD, low salt diet, mean): 98.367 pg/mL
Plasma aldosterone, Percent change from Day −1 to Day 10, predose (5.0 mg QD, low salt diet, mean): −36.400%
Plasma corticosterone, Day 1, 12 hours postdose (5.0 mg QD, low salt diet, mean): 890.3 pg/mL
Plasma corticosterone, Day 1, predose (5.0 mg QD, low salt diet, mean): 2726.3 pg/mL
Plasma corticosterone, Day 10, 12 hours postdose (5.0 mg QD, low salt diet, mean): 4738.9 pg/mL
Plasma corticosterone, Day 10, 24 hours postdose (5.0 mg QD, low salt diet, mean): 13976.7 pg/mL
Plasma corticosterone, Day 10, predose (5.0 mg QD, low salt diet, mean): 11962.2 pg/mL
Plasma corticosterone, Percent change from Day −1 to Day 10, predose (5.0 mg QD, low salt diet, mean): 460.2%
doses that markedly decrease aldosterone levels (low salt diet and normal salt diet): > 0.5 mg
inhibition of aldosterone synthesis: marked, sustained, selective, and generally dose dependent inhibition
inhibition of aldosterone synthesis (listed as (R)-compound 1): marked, sustained, selective, and generally dose dependent inhibition
